The text below walks through data of PMC4735493, “The Biological Effects of Bilirubin Photoisomers” (PLoS ONE, 2016).

One data set deals with MDR1. The data set is described as follows: Gene expression by real-time PCR: MDR1. Format: cell-based, human. Conditions: SH-SY5Y; bilirubin 24 μM, PI 15%; median (IQ range), n = 5. The procedure: (§1) The effect of bilirubin and bilirubin PI (24 μM bilirubin (corresponding to 140 nM Bf), 15% bilirubin PI, and a mixture of bilirubin and 15% PI) on the expression of genes involved in heme catabolism and in the regulation of the cell cycle (Table 1) was investigated in SH-SY5Y cells exposed to pigments for 1 and 24 hrs, respectively. Briefly, total RNA was isolated in TriReagent (Sigma-Aldrich, St Louis, MO, USA) according to the manufacture's protocol and stored at -80°C until analysis. RNA quantity and purity were evaluated spectrophotometrically at 260 nm, and RNA integrity was evaluated by agarose gel electrophoresis. Retrotranscription of total RNA (1 μg) was performed with an iScript cDNA Synthesis Kit (Bio-Rad Laboratories, Hercules, CA, USA) according to the manufacturer's instructions. The final cDNA was conserved at -20°C until used. […] The quantitative analysis of gene expression was performed by real-time PCR. […] The relative quantification was made using iCycler iQ software, version 3.1 (Bio-Rad Laboratories, Hercules, CA, USA), by the ΔΔCt method, taking into account the efficiencies of the individual's genes, and normalizing the results to the two housekeeping genes. […] The results are expressed as the mean ± SD.
In general terms: Quantitative PCR measures a nucleic acid by following its amplification.

The subject of another data set is HMOX2. The data set is described as follows: Gene expression by real-time PCR: HMOX2. Format: cell-based, human. Conditions: SH-SY5Y; bilirubin 24 μM, PI 15%; median (IQ range), n = 5; 1 hr exposure. The procedure: (§2) Briefly, total RNA was isolated in TriReagent (Sigma-Aldrich, St Louis, MO, USA) according to the manufacture's protocol and stored at -80°C until analysis. RNA quantity and purity were evaluated spectrophotometrically at 260 nm, and RNA integrity was evaluated by agarose gel electrophoresis. Retrotranscription of total RNA (1 μg) was performed with an iScript cDNA Synthesis Kit (Bio-Rad Laboratories, Hercules, CA, USA) according to the manufacturer's instructions. The final cDNA was conserved at -20°C until used. The primers for the targeted genes and the two housekeeping genes [hypoxanthine-guanine phosphoribosyltransferase (Hprt1) and glyceraldehydes 3-phosphate dehydrogenase (Gapdh)] were designed using Beacon Designer 2.0 software (PREMIER Biosoft International, Palo Alto, CA, USA). The quantitative analysis of gene expression was performed by real-time PCR. […] The relative quantification was made using iCycler iQ software, version 3.1 (Bio-Rad Laboratories, Hercules, CA, USA), by the ΔΔCt method, taking into account the efficiencies of the individual's genes, and normalizing the results to the two housekeeping genes. […] The results are expressed as the mean ± SD.

For data set [1], the system named is SH-SY5Y human neuroblastoma cell line. Briefly: Cell viability (CellTiter-Glo and MTT). Format: cell-based. The procedure:
The SH-SY5Y human neuroblastoma cell line was used for the in vitro studies (ATCC, Manassas, VA, USA). Authentication of the cell line was confirmed by independent laboratory (Generi Biotech, Czech Republic). The cells were tested for Mycoplasma contamination using the MycoAlert luminescence test (Lonza, Switzerland). Cells were cultured in a mixture of MEM Eagle and Ham’s F12 media (1:1, v/v), containing 15% of fetal bovine serum, in 75 cm^2 culture flasks, at 37°C, in a 5% CO2 atmosphere. For functional tests, cells were seeded at a concentration of 50,000 cells per 1 cm^2.
The effect of bilirubin (24 μM), pure bilirubin PI (5%, 15%, and 30% of bilirubin PI in complete culture media), and the combination of bilirubin with bilirubin PI on cell viability was analyzed by both MTT (Sigma, Germany) as well as by luminescent CellTiter-Glo (Promega, USA) tests, using a Sunrise Microplate Reader (Tecan, Austria) and Synergy 2 Multi-mode Microplate Reader (BioTek, USA), respectively.

A further data set has as its system BLVRA. Briefly: Gene expression by real-time PCR: BLVRA. Format: cell-based, human. Conditions: SH-SY5Y; bilirubin 24 μM, PI 15%; median (IQ range), n = 5; 1 hr exposure. As to the method:
as §2

In a further data set the test system is Cyclin D1. Briefly: Gene expression by real-time PCR: Cyclin D1. Format: cell-based, human. Conditions: SH-SY5Y; bilirubin 24 μM, PI 15%; median (IQ range), n = 5. The procedure:
as §2

The subject of another data set is heme oxygenase (HMOX). The data set is described as follows: Heme oxygenase activity determination (CO by gas chromatography). Format: cell-based, human. Conditions: SH-SY5Y; data not shown. The procedure:
The activity of heme oxygenase (HMOX) was measured as described previously. In brief, culture media harvested from SH-SY5Y batches were added to CO-free, septum-sealed vials. CO released into the vial headspace was quantified using gas chromatography with a reduction gas analyzer (Peak Laboratories, Mountain View, CA, USA).

The subject of the next data set is HMOX1. Briefly: Gene expression by real-time PCR: HMOX1. Format: cell-based, human. Conditions: SH-SY5Y; bilirubin 24 μM, PI 15%; median (IQ range), n = 5; 1 hr exposure. As to the method: as §2
A short description of data set [2]: Stability of pigments in the incubation medium by HPLC.
Description: The HPLC analyses were performed using an Agilent 1200 system (CA, USA) with a diode-array detector. […] The mobile phase consisted of 0.1 M di-n-octylamine acetate in methanol and water; the stationary phase was represented by a Poroshell 120, SB-C18 column (4.6 x 100 mm, 2.7 μm; Agilent, CA, USA). Samples were prepared by mixing 20 μl of bilirubin solution with 180 μl of ice-cold 0.1 M di-n-octylamine acetate in methanol, then vortexed and centrifuged to eliminate proteins. Twenty μl of the prepared sample was injected onto the column.
To check the stability of bilirubin PI, concentrations of bilirubin IXα, and EZ/ZE-bilirubins as well as Z-lumirubin after 1 and 24 hrs in the incubation medium were analysed by HPLC method (see above).
Data set [3] addresses T1, human serum albumin (HSA) (Homo sapiens, UniProt P02768). Briefly: Binding constant by fluorescence quenching of intrinsic Trp fluorescence. As to the method:
Thus, the binding constant for bilirubin and lumirubin to HSA was determined by quenching of the intrinsic Trp fluorescence. […] F0 was the fluorescence of HSA without a quencher, F the fluorescence of HSA with a quencher, CL was the quencher concentration, and CP was the concentration of HSA. The effect of cooperative binding of lumirubin and bilirubin was also studied, and the results were compared to the Ka obtained in the systems with biliverdin and gossypol, which served as a displacing agent of bilirubin from HSA [31, 32].

Another data set deals with Cyclin E. The data set is described as follows: Gene expression by real-time PCR: Cyclin E. Format: cell-based, human. Conditions: SH-SY5Y; bilirubin 24 μM, PI 15%; median (IQ range), n = 5. The procedure: as §2
In the next data set the test system is MRP1. The data set is described as follows: Gene expression by real-time PCR: MRP1. Conditions: SH-SY5Y; bilirubin 24 μM, PI 15%; median (IQ range), n = 5. Format: cell-based, human. The procedure: as §1
Another data set deals with SH-SY5Y cells. The data set is described as follows: Cell cycle phase by flow cytometry (propidium iodide). Format: cell-based, human. Conditions: bilirubin 24 μM, PI 15%, 1 and 24 hrs exposure, data not shown. The procedure: After centrifugation (310 x g; RT; 6 min), the sediments were re-suspended in 1 ml of staining solution in PBS containing 0.1% v/v Triton X-100, 20 μg/ml propidium iodide (PI), and 0.2 mg/ml DNAse free RNaseA. Samples were incubated in the dark for 30 min at RT, and subjected to FACS analysis (cytometer BD FACSCalibur TM; and CellQuest software, BD Biosciences, San Jose, CA). Data were collected for 10,000 events per sample.

In data set [4] the target is T1, human serum albumin (HSA). The data set is described as follows: Characterization of albumin binding sites by circular dichroism (CD) spectroscopy with marker ligands. The source says: CD spectra were obtained using a J-810 spectropolarimeter (Jasco, Japan) and analyzed as described elsewhere. […] For determination of the subdomain for lumirubin binding two compounds were used, hemin and bilirubin, as marker ligands for subdomain IB and IIA, respectively.
(In general: Circular dichroism is the unequal absorption of left and right circularly polarised light.)

Like-named read-outs stand apart in the source and are kept apart here. Marks after values point to notes of the source that are not given here.

T1 sequence (P02768 25-609): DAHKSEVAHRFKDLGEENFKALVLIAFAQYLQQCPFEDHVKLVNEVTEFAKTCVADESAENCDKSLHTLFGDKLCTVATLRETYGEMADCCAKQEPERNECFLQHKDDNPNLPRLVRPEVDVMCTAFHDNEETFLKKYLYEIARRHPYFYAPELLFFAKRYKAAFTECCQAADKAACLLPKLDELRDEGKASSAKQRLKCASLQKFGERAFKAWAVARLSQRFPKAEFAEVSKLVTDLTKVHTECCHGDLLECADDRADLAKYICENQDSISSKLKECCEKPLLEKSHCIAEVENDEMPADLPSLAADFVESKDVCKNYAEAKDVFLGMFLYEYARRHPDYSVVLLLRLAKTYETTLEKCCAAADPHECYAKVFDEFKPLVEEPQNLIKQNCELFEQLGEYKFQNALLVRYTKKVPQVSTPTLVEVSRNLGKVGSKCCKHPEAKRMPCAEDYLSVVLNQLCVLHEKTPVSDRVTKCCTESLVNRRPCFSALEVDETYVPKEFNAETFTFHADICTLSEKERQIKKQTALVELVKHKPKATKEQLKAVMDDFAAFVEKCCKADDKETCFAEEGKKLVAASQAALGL

Regarding `C=CC1=C(C)/C(=C/c2[nH]c(Cc3[nH]c(/C=C4\NC(=O)C(C)=C4C=C)c(C)c3CCC(=O)O)c(CCC(=O)O)c2C)NC1=O` [bilirubin, Z,Z-Bilirubin IXα], in the data set with MDR1, the “MDR1 mRNA expression” value is on record as 54.9 (35–84) % of control. Moreover, the “HMOX2 mRNA expression” value in the data set with HMOX2 is given as 130.3 (129–166) ^* % of control. The “Effect on cell viability, short-term exposure” value in data set [1] (60 min exposure, data not shown) is given as “did not have any effect on cell viability”. The “Effect on cell viability, 24 hr” value in data set [1] (24 hr, bilirubin 24 μM, PI up to 30%, n = 7) is “significantly reduced”. In addition, the “Effect on cell viability, 48 hr” value in [1] (48 hr, bilirubin 24 μM, PI up to 30%, n = 4) is reported as “significantly reduced”. The “BLVRA mRNA expression” value with BLVRA is 142.9 (109–179) % of control. Also, in the data set with Cyclin D1, the “Cyclin D1 mRNA expression” value is listed as 71.8 (64–157) % of control. Moreover, in the data set with heme oxygenase (HMOX), the “Effect on HMOX activity” value is given as “not translated onto increase of HMOX activity”. Also, the “HMOX1 mRNA expression” value with HMOX1 was 232.2 (197–240) ^* % of control. In addition, the “Stability after 24 hrs in the incubation medium” value in data set [2] is “stable”. The Kd in data set [3] was found to be 5.56 nM. In addition, the “Ka, binding constant bilirubin-(HSA-biliverdin)” value in [3] (bilirubin binding to HSA in presence of biliverdin) is given as “(1.1±0.4)·10^8 M^-1”. The “Ka, binding constant bilirubin-(HSA-gossypol)” value in data set [3] (bilirubin binding to HSA in presence of gossypol (displacer)) is listed as “(1.4±0.2)·10^5 M^-1”. Also, the “Ka, binding constant bilirubin-(HSA-lumirubin)” value in data set [3] (bilirubin binding to HSA in presence of lumirubin) was “(8.7±1.3)·10^7 M^-1”. For the same compound, the “Cyclin E mRNA expression” value with Cyclin E is listed as 78.9 (50–126) % of control. Besides, the “MRP1 mRNA expression” value in the data set on MRP1 is on record as 76.3 (71–90) % of control. Also, the “Effect on cell cycle progression” value with SH-SY5Y cells is given as “no effect on the cell cycle progression”.

For the compound `C=CC1=C(C)/C(=C/c2[nH]c(CC3=C(CCC(=O)O)C4(C)CC=C5C(=CC4=N3)NC(=O)C5C)c(CCC(=O)O)c2C)NC1=O` (stereo not shown) [lumirubin, Z-Lumirubin IXα], the “Effect on bilirubin binding to HSA (CD signal)” value in [4] (both bilirubin and hemin bound to HSA, molar ratio 1/1/1) is “moderately affects bilirubin binding to HSA”. Further, the “Localization of binding site on HSA” value in data set [4] (marker ligands hemin (IB) and bilirubin (IIA), molar ratio 1/1/1) is “subdomain IB”. The “Number of binding sites on HSA” value in data set [4] (pigment/HSA 1/1, 1.5 x 10^-5 mol/L, PBS pH 7.4) is recorded as “one binding site”. For the same compound, in [2], the “Concentration remaining after 24 hrs in the incubation medium” value came to 31%. In addition, the Kd in data set [3] (ligand bound to HSA alone, fluorescence quenching, read-out: Ka, binding constant for the ligand-HSA complex) came to 1080 nM.
